What was measured:
[1] = biological target: Opioid receptors; mu & kappa (Homo sapiens) (UniProt P41145+P35372); experiment: Selectivity for kappa opioid receptor over mu opioid receptor; format: protein assay
[2] = biological target: T1, Kappa-type opioid receptor (Homo sapiens, UniProt P41145); experiment: Agonist activity at kappa opioid receptor in a [35S]GTP-gamma-S functional assay
[3] = biological target: Opioid receptors; delta & kappa (Homo sapiens) (UniProt P41145+P41143); experiment: Selectivity for kappa opioid receptor over delta opioid receptor; format: protein assay
[4] = biological target: T1, Kappa-type opioid receptor; experiment: Binding affinity to kappa opioid receptor
Cytochrome P450 2D6 = Cytochrome P450 2D6 (Homo sapiens, UniProt P10635); experiment: Inhibitory activity against CYP2D6; format: ADME
Mu-type opioid receptor = Mu-type opioid receptor (Homo sapiens, UniProt P35372); experiment: Binding affinity to mu opioid receptor
Mus musculus = experiment: Inhibition of acetic acid-induced writhing in mice after sc administration; format: functional
Rattus norvegicus = organism: Rattus norvegicus; experiment: Antinociception in rat at 300 ug given intrapaw in late phase formalin-induced flinching assay; format: functional

Sequence of Cytochrome P450 2D6 (P10635 whole entry): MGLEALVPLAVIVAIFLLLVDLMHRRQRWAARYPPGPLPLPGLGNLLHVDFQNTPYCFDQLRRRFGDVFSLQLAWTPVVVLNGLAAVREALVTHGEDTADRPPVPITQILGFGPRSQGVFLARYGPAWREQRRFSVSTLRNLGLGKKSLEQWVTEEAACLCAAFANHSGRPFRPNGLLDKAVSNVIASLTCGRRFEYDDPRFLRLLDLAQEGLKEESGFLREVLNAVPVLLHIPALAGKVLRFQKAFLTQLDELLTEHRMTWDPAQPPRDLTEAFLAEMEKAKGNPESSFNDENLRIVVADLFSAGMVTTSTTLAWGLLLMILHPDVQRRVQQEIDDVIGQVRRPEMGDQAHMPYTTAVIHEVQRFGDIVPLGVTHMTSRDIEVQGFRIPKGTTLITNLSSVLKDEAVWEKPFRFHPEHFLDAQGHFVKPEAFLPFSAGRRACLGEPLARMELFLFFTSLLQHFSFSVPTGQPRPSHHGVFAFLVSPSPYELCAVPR
Sequence of Opioid receptors; mu & kappa (Homo sapiens) (P35372 whole entry, looked up): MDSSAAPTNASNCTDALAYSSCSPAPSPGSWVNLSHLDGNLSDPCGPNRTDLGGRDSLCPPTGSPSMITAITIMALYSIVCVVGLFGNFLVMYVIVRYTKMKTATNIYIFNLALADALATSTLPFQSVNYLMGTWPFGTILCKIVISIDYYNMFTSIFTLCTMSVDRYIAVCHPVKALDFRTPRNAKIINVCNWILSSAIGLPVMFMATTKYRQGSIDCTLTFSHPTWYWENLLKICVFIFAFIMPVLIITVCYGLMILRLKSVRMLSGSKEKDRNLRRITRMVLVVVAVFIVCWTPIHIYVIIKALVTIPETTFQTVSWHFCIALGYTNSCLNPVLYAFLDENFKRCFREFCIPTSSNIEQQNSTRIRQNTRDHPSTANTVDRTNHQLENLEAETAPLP
Sequence of Opioid receptors; mu & kappa (Homo sapiens) (P41145 whole entry, looked up): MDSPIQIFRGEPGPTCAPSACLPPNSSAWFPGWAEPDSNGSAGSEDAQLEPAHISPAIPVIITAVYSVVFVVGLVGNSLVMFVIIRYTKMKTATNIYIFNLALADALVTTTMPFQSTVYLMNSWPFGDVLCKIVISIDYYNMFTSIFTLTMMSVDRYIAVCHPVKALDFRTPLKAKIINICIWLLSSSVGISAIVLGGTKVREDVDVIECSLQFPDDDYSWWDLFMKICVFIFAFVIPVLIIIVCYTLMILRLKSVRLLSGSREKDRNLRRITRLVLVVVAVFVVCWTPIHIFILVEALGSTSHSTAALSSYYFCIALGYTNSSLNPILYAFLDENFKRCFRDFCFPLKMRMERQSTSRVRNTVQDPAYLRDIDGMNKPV
Sequence of Opioid receptors; delta & kappa (Homo sapiens) (P41143 whole entry, looked up): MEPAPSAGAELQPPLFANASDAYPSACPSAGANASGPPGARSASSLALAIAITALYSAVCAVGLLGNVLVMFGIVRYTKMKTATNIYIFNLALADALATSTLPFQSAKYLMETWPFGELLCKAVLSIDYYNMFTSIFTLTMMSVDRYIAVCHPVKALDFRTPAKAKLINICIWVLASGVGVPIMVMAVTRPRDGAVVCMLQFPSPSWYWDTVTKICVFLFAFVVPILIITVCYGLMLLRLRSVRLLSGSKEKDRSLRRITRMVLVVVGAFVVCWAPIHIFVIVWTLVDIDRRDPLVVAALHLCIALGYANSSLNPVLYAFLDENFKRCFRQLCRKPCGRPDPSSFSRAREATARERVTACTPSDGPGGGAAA
Sequence of Opioid receptors; delta & kappa (Homo sapiens) (P41145 whole entry, looked up): as the sequence (P41145 whole entry, looked up) above
T1 sequence (P41145 whole entry): as the sequence (P41145 whole entry, looked up) above
Sequence of Mu-type opioid receptor (P35372 whole entry): as the sequence (P35372 whole entry, looked up) above

`CN(C(=O)CNc1ccccc1CNS(C)(=O)=O)[C@H](CN1CC[C@H](O)C1)c1ccccc1` showed a Ratio [1] of 85, an EC50 [2] of 0.52 nM and a Ratio [3] of 10. The Ki [4] was 0.78 nM and the IC50 (Cytochrome P450 2D6) was 1500 nM.

`CN(C(=O)CNc1ccc(CNS(C)(=O)=O)cc1)[C@H](CN1CC[C@H](O)C1)c1ccccc1` was tested, and the Ratio [1] was 81, the EC50 [2] was 24 nM and the Ratio [3] was 119. It also gave a Ki [4] of 16 nM and an IC50 (Cytochrome P450 2D6) of 8000 nM.

`CN(CC(=O)N(C)[C@H](CN1CC[C@H](O)C1)c1ccccc1)c1ccc(C#N)cc1` was tested, and the Ratio [1] was 250, the EC50 [2] was 2.3 nM and the Ratio [3] was 180. The Ki [4] was 1 nM and the IC50 (Cytochrome P450 2D6) was 670 nM.

Work on `CCCS(=O)(=O)Nc1ccc(NCC(=O)N(C)[C@H](CN2CC[C@H](O)C2)c2ccccc2)cc1` yielded a Ratio [1] of 1000, an EC50 [2] of 8.3 nM and a Ratio [3] of 87. It also gave a Ki [4] of 1.5 nM and an IC50 (Cytochrome P450 2D6) of 9000 nM.

In the case of `CN(C(=O)CNc1ccc(C#N)cc1)[C@H](CN1CC[C@H](O)C1)c1ccccc1`, the Ratio [1] is reported as 833, the EC50 [2] is reported as 0.49 nM and the Ratio [3] is reported as 409. The Ki [4] was 0.66 nM and the IC50 (Cytochrome P450 2D6) was 2500 nM.

Work on `CN(C(=O)CNc1ccccc1C#N)[C@H](CN1CC[C@H](O)C1)c1ccccc1` yielded a Ratio [1] of 667, an EC50 [2] of 0.42 nM and a Ratio [3] of 49. It also gave a Ki [4] of 0.39 nM and an IC50 (Cytochrome P450 2D6) of 510 nM.

With `CN(C(=O)CNc1ccc(NS(C)(=O)=O)cc1)[C@H](CN1CC[C@H](O)C1)c1ccccc1` the Ratio [1] was > 877, the Ki (Mu-type opioid receptor) was > 5000 nM and the EC50 [2] was 14 nM. It also gave a Ratio [3] of 47 and a Ki [4] of 5.7 nM.

For `CC(=O)N(CC(=O)N(C)[C@H](CN1CC[C@H](O)C1)c1ccccc1)c1ccccc1`, the Ratio [1] was > 1320, the Ki (Mu-type opioid receptor) was > 5000 nM and the EC50 [2] was 7.4 nM. It also gave a Ratio [3] of 342, a Ki [4] of 3.8 nM and an IC50 (Cytochrome P450 2D6) of 300 nM.

Compound `CN(C(=O)CNc1ccccc1)[C@H](CN1CC[C@H](O)C1)c1ccccc1` has a Ratio [1] of 5880, a Ratio [3] of 512 and an ED50 (Mus musculus) of 0.017 mg/kg. The Activity (Rattus norvegicus) was 96.2% and the IC50 (Cytochrome P450 2D6) was 4100 nM.

In the case of `CN(C(=O)CNc1cccc(C#N)c1)[C@H](CN1CC[C@H](O)C1)c1ccccc1`, the Ratio [1] is reported as 1140, the EC50 [2] is reported as 0.58 nM and the Ratio [3] is reported as 66. For the same compound, the Ki [4] was 0.5 nM and the IC50 (Cytochrome P450 2D6) was 3000 nM.

In the case of `CN(C(=O)CNc1cccc(CNS(C)(=O)=O)c1)[C@H](CN1CC[C@H](O)C1)c1ccccc1`, the Ratio [1] is reported as 38, the EC50 [2] is reported as 4.8 nM and the Ratio [3] is reported as 38. It also gave a Ki [4] of 3.9 nM and an IC50 (Cytochrome P450 2D6) of 8700 nM.

Work on `CN(C(=O)CNc1ccc(Cl)c(Cl)c1)[C@H](CN1CC[C@H](O)C1)c1ccccc1` yielded a Ratio [1] of 427, an EC50 [2] of 0.27 nM and a Ratio [3] of 91. The Ki [4] was 0.11 nM and the IC50 (Cytochrome P450 2D6) was 760 nM.

In the case of `CN(C(=O)CNc1ccc([N+](=O)[O-])cc1)[C@H](CN1CC[C@H](O)C1)c1ccccc1`, the Ratio [1] is reported as 905, the EC50 [2] is reported as 0.23 nM and the Ratio [3] is reported as 119. For the same compound, the Ki [4] was 0.21 nM and the IC50 (Cytochrome P450 2D6) was 3400 nM.

Compound `CN(CC(=O)N(C)[C@H](CN1CC[C@H](O)C1)c1ccccc1)c1ccccc1` has a Ratio [1] of 1660, an EC50 [2] of 0.23 nM and a Ratio [3] of 169. It also gave a Ki [4] of 0.32 nM and an IC50 (Cytochrome P450 2D6) of 530 nM.

Compound `CN(C(=O)CNc1ccc(C(F)(F)F)cc1)[C@H](CN1CC[C@H](O)C1)c1ccccc1` has a Ratio [1] of 385, an EC50 [2] of 0.8 nM and a Ratio [3] of 256. For the same compound, the Ki [4] was 0.39 nM and the IC50 (Cytochrome P450 2D6) was 190 nM.
